Several values for one entry are separate records, joined by “and”; a condition that tells them apart may be missing. Equal entries are not always repeated.
Settings: 343.15 K, Liquid, Vibrating tube method

CCCCCC(=O)OCC(COC(=O)CCCCC)(COC(=O)CCCCC)COC(=O)CCCCC [pentaerythritol tetrahexanoate]
Settings	mass density
311.7 kPa	957.4 kg/m3
311.9 kPa	957.5 kg/m3
312 kPa	957.2 kg/m3
312.2 kPa	957.3 kg/m3
312.5 kPa	957.3 kg/m3
315 kPa	957.3 kg/m3
315.7 kPa	957.4 kg/m3
316 kPa	957.4 kg/m3
316.5 kPa	957.4 kg/m3
316.6 kPa	957.4 kg/m3
316.7 kPa	957.4 kg/m3
318.5 kPa	957.4 kg/m3
318.8 kPa	957.3 kg/m3
319.3 kPa	957.3 kg/m3 and 957.2 kg/m3 and 957.4 kg/m3
319.7 kPa	957.3 kg/m3
319.9 kPa	957.3 kg/m3
320.4 kPa	957.2 kg/m3
320.7 kPa	957.3 kg/m3
321.2 kPa	957.3 kg/m3
322.1 kPa	957.1 kg/m3
322.5 kPa	957.3 kg/m3
322.8 kPa	957.3 kg/m3
323.1 kPa	957.3 kg/m3
323.2 kPa	957.4 kg/m3
323.3 kPa	957.2 kg/m3
323.7 kPa	957.4 kg/m3
323.9 kPa	957.3 kg/m3
324 kPa	957.3 kg/m3
324.2 kPa	957.3 kg/m3
324.5 kPa	957.3 kg/m3
324.7 kPa	957.3 kg/m3
325.1 kPa	957.3 kg/m3
325.2 kPa	957.3 kg/m3
325.9 kPa	957.3 kg/m3
326.3 kPa	957.3 kg/m3
326.4 kPa	957.4 kg/m3
326.6 kPa	957.3 kg/m3
327 kPa	957.2 kg/m3
327.1 kPa	957.3 kg/m3
327.5 kPa	957.4 kg/m3
327.7 kPa	957.2 kg/m3
328 kPa	957.4 kg/m3
333.2 kPa	957.4 kg/m3
333.4 kPa	957.3 kg/m3
333.7 kPa	957.2 kg/m3
333.9 kPa	957.3 kg/m3
334.3 kPa	957.2 kg/m3
334.6 kPa	957.3 kg/m3
334.8 kPa	957.3 kg/m3
335.1 kPa	957.4 kg/m3
335.5 kPa	957.3 kg/m3
336.2 kPa	957.3 kg/m3
336.5 kPa	957.3 kg/m3
336.9 kPa	957.4 kg/m3
338.1 kPa	957.3 kg/m3
338.6 kPa	957.3 kg/m3
339.1 kPa	957.3 kg/m3 and 957.2 kg/m3
339.5 kPa	957.3 kg/m3
339.8 kPa	957.3 kg/m3
340.2 kPa	957.3 kg/m3
340.5 kPa	957.3 kg/m3
340.9 kPa	957.5 kg/m3
341.6 kPa	957.4 kg/m3 and 957.2 kg/m3
341.9 kPa	957.4 kg/m3
342.1 kPa	957.4 kg/m3
342.8 kPa	957.2 kg/m3 and 957.3 kg/m3
343.1 kPa	957.3 kg/m3
343.5 kPa	957.3 kg/m3
343.6 kPa	957.4 kg/m3
344.2 kPa	957.4 kg/m3
344.3 kPa	957.3 kg/m3
345.9 kPa	957.3 kg/m3
346.4 kPa	957.4 kg/m3
346.8 kPa	957.3 kg/m3
347.3 kPa	957.4 kg/m3
348 kPa	957.3 kg/m3
348.3 kPa	957.2 kg/m3
351.8 kPa	957.3 kg/m3
352.2 kPa	957.2 kg/m3
352.7 kPa	957.4 kg/m3
352.9 kPa	957.2 kg/m3
353 kPa	957.3 kg/m3
358.8 kPa	957.4 kg/m3
359.3 kPa	957.3 kg/m3
359.6 kPa	957.4 kg/m3
363.3 kPa	957.4 kg/m3
363.6 kPa	957.3 kg/m3
364 kPa	957.4 kg/m3
364.5 kPa	957.4 kg/m3
364.7 kPa	957.4 kg/m3
365 kPa	957.4 kg/m3
365.4 kPa	957.4 kg/m3
368.8 kPa	957.3 kg/m3
369.2 kPa	957.3 kg/m3
369.7 kPa	957.3 kg/m3
370.1 kPa	957.4 kg/m3
372.8 kPa	957.3 kg/m3
373.2 kPa	957.4 kg/m3
373.7 kPa	957.4 kg/m3
374.1 kPa	957.5 kg/m3 and 957.4 kg/m3
374.7 kPa	957.3 kg/m3
374.8 kPa	957.3 kg/m3
375.5 kPa	957.3 kg/m3
375.8 kPa	957.2 kg/m3
376 kPa	957.3 kg/m3
376.5 kPa	957.4 kg/m3
376.8 kPa	957.4 kg/m3
377.4 kPa	957.3 kg/m3
377.5 kPa	957.4 kg/m3
378.1 kPa	957.4 kg/m3
378.6 kPa	957.4 kg/m3
379.1 kPa	957.3 kg/m3
380.5 kPa	957.4 kg/m3
380.8 kPa	957.5 kg/m3
381.2 kPa	957.5 kg/m3
381.5 kPa	957.5 kg/m3
382.1 kPa	957.3 kg/m3
382.7 kPa	957.3 kg/m3
382.9 kPa	957.4 kg/m3
383.6 kPa	957.4 kg/m3
383.8 kPa	957.4 kg/m3
384.3 kPa	957.4 kg/m3
384.5 kPa	957.4 kg/m3
384.8 kPa	957.5 kg/m3
385.5 kPa	957.4 kg/m3 and 957.5 kg/m3
385.9 kPa	957.4 kg/m3
386.7 kPa	957.5 kg/m3
390.6 kPa	957.4 kg/m3
390.9 kPa	957.4 kg/m3
391.4 kPa	957.3 kg/m3
391.8 kPa	957.5 kg/m3
392 kPa	957.3 kg/m3
392.8 kPa	957.4 kg/m3
393.2 kPa	957.4 kg/m3
393.7 kPa	957.4 kg/m3
394 kPa	957.4 kg/m3
394.9 kPa	957.3 kg/m3
395.1 kPa	957.5 kg/m3
395.4 kPa	957.3 kg/m3
395.8 kPa	957.3 kg/m3
396.3 kPa	957.4 kg/m3
396.8 kPa	957.4 kg/m3
397.2 kPa	957.4 kg/m3
397.7 kPa	957.5 kg/m3
397.9 kPa	957.4 kg/m3

From the NIST ThermoML archive (doi:10.1021/je060271a)
